Where two headings read alike, the source gives them in different places.
Experiments:
LNL8 fibroblasts = assay: Immunofluorescent staining of Rad51 foci in nuclei and micronuclei of LNL8 fibroblasts; assay type: cell-based; details: human LNL8 fibroblast cultures, non-lethal doses of 5-aza-dC
Source text: (§1) Immunofluorescent Staining.
(§2) Digital Imaging Microscopy.

TGR-1 cells [1] = test system: TGR-1 cells
Method: To induce DSBs in DNA and recombinational repair, cell cultures were exposed to a ^137CS irradiator at doses of 900 rad and then allowed to recover for various time spans. In another experiment, cells were treated with 10 μM 5-aza-dC for 24 hrs.
Immunofluorescent Staining. Harvested cells were washed and resuspended in PBS. Cell density was adjusted to ˜10^5 cells/ml. 0.5 ml aliquots of this cell suspension were centrifuged onto clean glass slides at 800 rpm for 4 min, using a Shandon Cytospin. Immediately after cytocentrifugation, the preparations were fixed in absolute methanol for 30 min at −20° C. and then rinsed in ice-cold acetone for a few seconds. Following three washes with PBS, the preparations were incubated at 37° C. with rabbit anti-HsRad51 antiserum, diluted 1:100 with PBS, in a humidified incubator for 30 min. For some experiments, the slides were simultaneously labeled with rat anti-HsRad52 antiserum or mouse monoclonal antibody. The slides were then washed in PBS another three times for 10 min each and incubated for 30 min with fluorescein-isothiocyanate (FITC)-conjugated anti-rabbit IaG, appropriately diluted with PBS. Rad52, Gadd45, p53, and RNAPII were detected with rhodamine, conjugated anti-rat IgG or anti-mouse IgG+IgM. After three further washes with PBS, the preparations were counterstained with 1 μg/ml 4,6-diamidino-2-phenylindole (DAPI) in 2×SSC for 5 min. The slides were mounted in 90% glycerol, 0.1 M Tris-HCl, pH 8.0, and 2.3% 1,4-diazobicyclo-2,2,2-octane (DABCO).
(§3) Fluorescence In Situ End Labeling (FISEL). FISEL detects cell death (apoptosis) in situ by quantitating DNA strand breaks in individual nuclei. It uses terminal transferase (TdT) to label the 3′-ends in fragmented genomic DNA with biotinylated nucleotide. 100 μl of reaction mix contain 1 μl (25 Units) TdT (Boehringer Mannheim), 20 μl 5×TdT buffer (supplied with the enyzme), 1 μl 0.5 mM biotin-ll-dUTP, 3 μl 0.5 mM dTTP, and 75 μl ddH2O. Cytological preparations are incubated at 37° C. for 1 hr with this reaction mix. Washing the slides for 3×5 min in PBS is sufficient to terminate the reaction. The incorporated biotin-dUTP is detected with rhodarnine-conjugated avidin.
Digital Imaging Microscopy. Images were taken with a Zeiss epifluorescence microscope equipped with a thermoelectronically cooled charge coupled device (CCD) camera (Photometries CH250), which was controlled by an Apple Macintosh computer. Gray scale source images were captured separately with filter sets for FITC, rhodamine, and DAPI. Gray scale images were pseudocolored and merged using ONCOR Image and ADOBE Photoshop software.

TGR-1 cells [2] = assay: Immunofluorescent staining of Rad51 foci in nuclei and micronuclei of TGR-1 cells; assay type: cell-based, rat; details: TGR-1 cultures treated with etoposide, FIG. 5D
Source text: as §1, §2

TGR-1 cells [3] = assay: Apoptosis by fluorescence in situ end labeling (FISEL) in TGR-1 cells; assay type: cell-based, rat; details: After 36 hrs etoposide in culture medium
Method: Treatment with etoposide (Sedivy), a drug that inhibits DNA topoisomerase II, is a classic system for inducing apoptosis in cells (Mizumoto, et al., (1994). Mol. Pharmac. 46, 890-895).
as §3

[4] = 24 hrs 0.1 μg/ml colcemid, 1 day of recovery
[5] = 24 hrs 0.1 μg/ml colcemid, 2 days of recovery
[6] = 24 hrs 0.1 μg/ml colcemid, 3 days of recovery
[7] = 24 hrs 0.1 μg/ml colcemid, no recovery

**Q.** How did the “cells displaying MN with focally concentrated Rad51 protein” value (LNL8 fibroblasts) turn out when Nc1ncn([C@H]2C[C@H](O)[C@@H](CO)O2)c(=O)n1 [5-aza-dC, 5-azadeoxycytidine] was run?
**A.** 5-10%

**Q.** CN[C@H]1CCc2cc(OC)c(OC)c(OC)c2-c2ccc(OC)c(=O)cc21 [Colcemid, colcemid] was tested. Which “colcemid-treated cells arrested at metaphase” value (TGR-1 cells [1]; 24 hrs 0.1 μg/ml colcemid) did it give?
**A.** 185

**Q.** What about the “Percentage of Cells Showing Rad51+/FISEL+” value (TGR-1 cells [1]; [4]) of the same compound?
**A.** 1%

**Q.** What about the “Percentage of Cells Showing Rad51+/FISEL−” value (TGR-1 cells [1]; [4]) of the same compound?
**A.** 31%

**Q.** And the “Percentage of Cells Showing Rad51−/FISEL+” value (TGR-1 cells [1]; [4])?
**A.** 14%

**Q.** And the “Percentage of Cells Showing Rad51−/FISEL−” value (TGR-1 cells [1]; [4])?
**A.** 54%

**Q.** And the “Percentage of Cells Showing Rad51+/FISEL+” value (TGR-1 cells [1]; [5])?
**A.** 6%

**Q.** What about the “Percentage of Cells Showing Rad51+/FISEL−” value (TGR-1 cells [1]; [5]) of the same compound?
**A.** 9%

**Q.** What about the “Percentage of Cells Showing Rad51−/FISEL+” value (TGR-1 cells [1]; [5]) of the same compound?
**A.** 40%

**Q.** What about the “Percentage of Cells Showing Rad51−/FISEL−” value (TGR-1 cells [1]; [5]) of the same compound?
**A.** 45%

**Q.** And the “Percentage of Cells Showing Rad51+/FISEL+” value (TGR-1 cells [1]; [6])?
**A.** 4%

**Q.** What about the “Percentage of Cells Showing Rad51+/FISEL−” value (TGR-1 cells [1]; [6]) of the same compound?
**A.** 7%

**Q.** What about the “Percentage of Cells Showing Rad51−/FISEL+” value (TGR-1 cells [1]; [6]) of the same compound?
**A.** 46%

**Q.** And the “Percentage of Cells Showing Rad51−/FISEL−” value (TGR-1 cells [1]; [6])?
**A.** 43%

**Q.** And the “Percentage of Cells Showing Rad51+/FISEL+” value (TGR-1 cells [1]; [7])?
**A.** 0%

**Q.** And the “Percentage of Cells Showing Rad51+/FISEL−” value (TGR-1 cells [1]; [7])?
**A.** 6%

**Q.** What about the “Percentage of Cells Showing Rad51−/FISEL+” value (TGR-1 cells [1]; [7]) of the same compound?
**A.** 9%

**Q.** And the “Percentage of Cells Showing Rad51−/FISEL−” value (TGR-1 cells [1]; [7])?
**A.** 85%

**Q.** And the “induced MN containing very brightly fluorescing Rad51 foci” value (TGR-1 cells [1]; colcemid-treated cells recovered 24 hrs in drug-free medium)?
**A.** over 30%

**Q.** COc1cc([C@@H]2c3cc4c(cc3[C@@H](O[C@@H]3O[C@@H]5CO[C@@H](C)O[C@H]5[C@H](O)[C@H]3O)[C@H]3COC(=O)[C@H]23)OCO4)cc(OC)c1O [etoposide] was tested. Which “content of induced micronuclei (Rad51 protein, fragmented DNA)” value (TGR-1 cells [2]) did it give?
**A.** contain Rad51 protein

**Q.** And the “cells showing genome fragmentation (FISEL-positive)” value (TGR-1 cells [3])?
**A.** half of the cells showed genome fragmentation

Reference: US6391564B1, “Methods and compositions utilizing Rad51” (priority 1997, dated 2002)
